Assay results from ChEMBL document CHEMBL1201862, “PubChem BioAssay data set” (2004).
Activity calls are given as the source filed them.

Key:
[1] = target: Mitochondrial peptide methionine sulfoxide reductase (Bos taurus, UniProt P54149); assay: Absorbance-based biochemical high throughput dose response assay for activators of Methionine sulfoxide reductase A (MsrA).; type: functional
[2] = target: Eukaryotic translation initiation factor 4E (Mus musculus, UniProt P63073); assay: blockers of eIF4G binding by eIF4E – biochemical, TR-FRET, dose response (AID 855); type: functional;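 also: potency for disrupting eIF4E binding to eIF4GI seen as loss of FRET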
[3] = THP-1 cell cytotoxicity, dose response, cytotoxicity control for non-replicating M. tuberculosis project (AID 489025); type: functional
[4] = target: DNA dC->dU-editing enzyme APOBEC-3A (Homo sapiens, UniProt P31941); assay: A3A deaminase inhibition for selectivity – biochemical, dose response (AID 504722); type: functional
Procathepsin L = Procathepsin L (Homo sapiens, UniProt P07711)
[5] = Vero E6 cell cytotoxicity, dose response, cytotoxicity control for non-replicating M. tuberculosis project, secondary assay (AID 492998); type: functional, VeroE6; conditions: Vero C1008
[6] = target: Mannose-6-phosphate isomerase (Homo sapiens, UniProt P34949); assay: MPI inhibition at elevated mannose 6-phosphate – biochemical, fluorescence intensity, high mannose 6-phosphate, primary screen (AID 1220)
cells = type: functional
[7] = target: Glucose-6-phosphate 1-dehydrogenase (Homo sapiens, UniProt P11413); assay: inhibition of Homo sapiens G6PD, dose series – biochemical, fluorescence, selectivity assay for P. falciparum G6PD inhibitor project, dose response (AID 504792); type: functional
[8] = viability inhibitors of stage V gametocytes – luminescence, dose response (AID 1117278); type: functional, cell-based;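 also: gametocytes exposed to compound for 24 hours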
Hexokinase = target: T1, Hexokinase (Trypanosoma brucei, UniProt Q38C41); assay: Confirmation assay for inhibitors of Trypanosoma brucei hexokinase 1-Analogue-first series. [Related pubchem assays (depositor defined):AID1430, AID1632, AID2516, AID2560, AID2579, AID2600, AID449725, AID492951]; type: functional
T1 sequence (Q38C41 whole entry): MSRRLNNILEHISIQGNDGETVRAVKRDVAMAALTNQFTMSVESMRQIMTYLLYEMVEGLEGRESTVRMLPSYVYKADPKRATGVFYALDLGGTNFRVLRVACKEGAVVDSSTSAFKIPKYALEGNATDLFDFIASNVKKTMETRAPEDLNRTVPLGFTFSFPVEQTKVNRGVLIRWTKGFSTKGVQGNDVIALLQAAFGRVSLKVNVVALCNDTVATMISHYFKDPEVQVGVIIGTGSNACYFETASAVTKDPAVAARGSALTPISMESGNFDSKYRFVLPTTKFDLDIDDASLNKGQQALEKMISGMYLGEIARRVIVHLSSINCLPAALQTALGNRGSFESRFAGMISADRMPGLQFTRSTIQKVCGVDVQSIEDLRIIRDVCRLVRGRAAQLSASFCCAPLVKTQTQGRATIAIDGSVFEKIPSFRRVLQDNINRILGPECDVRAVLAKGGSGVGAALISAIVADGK

[9] = target: DNA dC->dU-editing enzyme APOBEC-3G (Homo sapiens, UniProt Q9HC16); assay: Dose Response confirmation of small molecule APOBEC3G DNA Deaminase Inhibitors via a fluorescence-based single-stranded DNA deaminase assay. [Related pubchem assays (depositor defined):AID493012, AID493028]; type: functional
[10] = viability loss in human Jurkat cells – cell-based, luminescence, cytotoxicity control for P. falciparum gametocyte viability project, dose response (AID 1117277); type: functional;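 also: potency reflects loss of cellular ATP meaning fewer viable cells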
Aspartyl aminopeptidase = Aspartyl aminopeptidase (Plasmodium falciparum 3D7, UniProt Q8I2J3)
[11] = microbe, parasite or virus in culture; type: functional; conditions: Mycobacterium tuberculosis
Large T antigen = Large T antigen (Simian virus 40, UniProt P03070); type: functional, Betapolyomavirus macacae;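 also: Confirmatory-stage PubChem screen for compounds that inhibit SV40 T antigen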
Cytochrome P450 2D6 = Cytochrome P450 2D6 (Homo sapiens, UniProt P10635); assay: qHTS Assay for Inhibitors and Substrates of Cytochrome P450 2D6. [Related pubchem assays: 410 ]; type: ADME; conditions: read-out: Potency
Mucolipin-3 = target: T2, Mucolipin-3 (Homo sapiens, UniProt Q8TDD5); assay: Fluorescence counterscreen assay for […] agonists: dose response cell-based high-throughput screening assay to identify agonists of the transient receptor potential channel ML3 (TRPML3). [Related pubchem assays: 1424, 1448 ]; type: functional
T2 sequence (Q8TDD5 whole entry): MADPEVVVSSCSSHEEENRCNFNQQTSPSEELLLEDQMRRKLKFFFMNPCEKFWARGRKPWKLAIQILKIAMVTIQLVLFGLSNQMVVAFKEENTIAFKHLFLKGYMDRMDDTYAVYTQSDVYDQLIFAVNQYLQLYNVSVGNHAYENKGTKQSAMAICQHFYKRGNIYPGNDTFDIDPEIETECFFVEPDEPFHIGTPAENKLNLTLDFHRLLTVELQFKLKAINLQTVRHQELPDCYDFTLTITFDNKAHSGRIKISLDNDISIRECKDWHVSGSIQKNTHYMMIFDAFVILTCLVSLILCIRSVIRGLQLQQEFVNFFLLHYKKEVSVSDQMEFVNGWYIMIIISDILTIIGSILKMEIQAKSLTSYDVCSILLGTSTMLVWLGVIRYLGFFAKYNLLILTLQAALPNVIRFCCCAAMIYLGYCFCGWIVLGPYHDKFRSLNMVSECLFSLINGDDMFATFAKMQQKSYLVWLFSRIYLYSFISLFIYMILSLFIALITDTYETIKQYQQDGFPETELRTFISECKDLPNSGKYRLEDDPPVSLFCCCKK

Galanin receptor type 2 = Galanin receptor type 2 (Homo sapiens, UniProt O43603); assay: Dose Response cell-based high-throughput screening assay to identify antagonists of galanin receptor 2 (GALR2). [Related pubchem assays: 828, 866 ]; type: functional
Ion channel NompC = Ion channel NompC (Danio rerio, UniProt Q7T1G6); assay: Dose response cell-based high-throughput screening assay for agonists of the transient receptor potential channel N1 (TRPN1). [Related pubchem assays (depositor defined):AID1424, AID1448]; type: functional
Vasopressin V1a receptor = Vasopressin V1a receptor (Homo sapiens, UniProt P37288); assay: Counterscreen for Oxytocin Receptor (OXTR) agonists: Fluorescence-based cell-based high throughput dose response assay to identify agonists of the vasopressin 1 receptor (V1R). [Related pubchem assays: 2435 (Primary screen (OXTR agonists in singlicate)), 434991 (Counterscreen (V1R agonists in triplicate)), 2482 (Summary (OXTR agonists)) …; type: functional
Oxytocin receptor = Oxytocin receptor (Homo sapiens, UniProt P30559); assay: Fluorescence-based cell-based high throughput dose response assay for agonists of the Oxytocin Receptor (OXTR). [Related pubchem assays: 2435 (Primary screen (OXTR agonists in singlicate)), 434991 (Counterscreen (V1R agonists in triplicate)), 2482 (Summary (OXTR agonists)), 434963 (Confirmation screen (OXTR agonists in triplicate))]; type: functional

Chain of Mannose-6-phosphate isomerase (P34949 whole entry): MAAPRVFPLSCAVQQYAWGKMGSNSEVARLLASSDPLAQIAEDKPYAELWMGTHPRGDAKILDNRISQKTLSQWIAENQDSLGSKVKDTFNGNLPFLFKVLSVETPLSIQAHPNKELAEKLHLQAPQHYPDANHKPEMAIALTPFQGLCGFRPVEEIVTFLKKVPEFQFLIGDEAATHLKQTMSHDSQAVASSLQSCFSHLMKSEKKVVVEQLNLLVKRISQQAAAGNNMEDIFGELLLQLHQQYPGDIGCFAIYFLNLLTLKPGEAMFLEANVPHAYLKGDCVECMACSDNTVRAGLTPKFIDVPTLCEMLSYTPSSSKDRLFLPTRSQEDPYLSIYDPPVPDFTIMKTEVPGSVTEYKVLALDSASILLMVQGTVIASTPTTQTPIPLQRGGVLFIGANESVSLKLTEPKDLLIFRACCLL
Chain of Galanin receptor type 2 (O43603 whole entry): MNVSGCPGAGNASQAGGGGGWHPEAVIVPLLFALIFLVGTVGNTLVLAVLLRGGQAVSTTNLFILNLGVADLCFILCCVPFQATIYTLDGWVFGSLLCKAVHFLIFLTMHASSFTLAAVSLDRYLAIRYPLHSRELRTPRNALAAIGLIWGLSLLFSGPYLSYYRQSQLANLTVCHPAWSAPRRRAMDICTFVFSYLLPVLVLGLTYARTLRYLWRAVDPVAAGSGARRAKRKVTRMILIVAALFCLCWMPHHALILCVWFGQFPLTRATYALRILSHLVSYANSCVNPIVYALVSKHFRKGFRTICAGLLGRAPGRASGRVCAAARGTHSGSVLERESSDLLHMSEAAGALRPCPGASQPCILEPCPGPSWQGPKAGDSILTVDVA
Chain of Cytochrome P450 2D6 (P10635 whole entry): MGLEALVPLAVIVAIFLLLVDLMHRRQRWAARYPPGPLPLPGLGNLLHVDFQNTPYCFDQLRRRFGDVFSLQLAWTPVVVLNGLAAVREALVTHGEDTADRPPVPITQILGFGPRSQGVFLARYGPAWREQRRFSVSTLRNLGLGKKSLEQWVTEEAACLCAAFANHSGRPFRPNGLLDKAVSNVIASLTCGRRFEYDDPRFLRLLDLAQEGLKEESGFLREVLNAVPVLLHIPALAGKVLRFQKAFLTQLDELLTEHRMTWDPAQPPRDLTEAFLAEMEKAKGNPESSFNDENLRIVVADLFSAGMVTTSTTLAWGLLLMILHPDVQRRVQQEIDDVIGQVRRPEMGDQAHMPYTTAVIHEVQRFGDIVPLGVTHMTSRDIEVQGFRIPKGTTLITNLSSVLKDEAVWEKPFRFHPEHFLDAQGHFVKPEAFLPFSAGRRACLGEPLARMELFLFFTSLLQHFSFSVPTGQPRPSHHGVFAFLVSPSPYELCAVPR
Chain of Large T antigen (P03070 whole entry): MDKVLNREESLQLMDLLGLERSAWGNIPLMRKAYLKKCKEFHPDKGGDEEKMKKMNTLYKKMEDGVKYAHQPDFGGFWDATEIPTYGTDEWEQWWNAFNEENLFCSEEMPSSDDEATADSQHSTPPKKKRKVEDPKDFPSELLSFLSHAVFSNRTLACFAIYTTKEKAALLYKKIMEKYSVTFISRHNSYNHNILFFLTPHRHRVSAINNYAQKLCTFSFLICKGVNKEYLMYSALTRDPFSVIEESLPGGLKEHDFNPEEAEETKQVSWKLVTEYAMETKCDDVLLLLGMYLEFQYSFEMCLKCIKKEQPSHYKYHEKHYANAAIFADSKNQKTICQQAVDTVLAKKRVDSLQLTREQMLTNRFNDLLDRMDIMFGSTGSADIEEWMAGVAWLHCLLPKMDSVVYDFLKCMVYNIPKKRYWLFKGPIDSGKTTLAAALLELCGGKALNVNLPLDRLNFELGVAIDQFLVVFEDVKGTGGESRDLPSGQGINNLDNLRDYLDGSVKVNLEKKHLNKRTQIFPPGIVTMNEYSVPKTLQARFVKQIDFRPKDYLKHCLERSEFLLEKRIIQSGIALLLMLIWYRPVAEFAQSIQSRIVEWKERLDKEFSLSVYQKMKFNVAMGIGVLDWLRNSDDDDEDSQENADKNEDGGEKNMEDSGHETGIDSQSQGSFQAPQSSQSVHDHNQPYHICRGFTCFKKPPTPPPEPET
Chain of Ion channel NompC (Q7T1G6 whole entry): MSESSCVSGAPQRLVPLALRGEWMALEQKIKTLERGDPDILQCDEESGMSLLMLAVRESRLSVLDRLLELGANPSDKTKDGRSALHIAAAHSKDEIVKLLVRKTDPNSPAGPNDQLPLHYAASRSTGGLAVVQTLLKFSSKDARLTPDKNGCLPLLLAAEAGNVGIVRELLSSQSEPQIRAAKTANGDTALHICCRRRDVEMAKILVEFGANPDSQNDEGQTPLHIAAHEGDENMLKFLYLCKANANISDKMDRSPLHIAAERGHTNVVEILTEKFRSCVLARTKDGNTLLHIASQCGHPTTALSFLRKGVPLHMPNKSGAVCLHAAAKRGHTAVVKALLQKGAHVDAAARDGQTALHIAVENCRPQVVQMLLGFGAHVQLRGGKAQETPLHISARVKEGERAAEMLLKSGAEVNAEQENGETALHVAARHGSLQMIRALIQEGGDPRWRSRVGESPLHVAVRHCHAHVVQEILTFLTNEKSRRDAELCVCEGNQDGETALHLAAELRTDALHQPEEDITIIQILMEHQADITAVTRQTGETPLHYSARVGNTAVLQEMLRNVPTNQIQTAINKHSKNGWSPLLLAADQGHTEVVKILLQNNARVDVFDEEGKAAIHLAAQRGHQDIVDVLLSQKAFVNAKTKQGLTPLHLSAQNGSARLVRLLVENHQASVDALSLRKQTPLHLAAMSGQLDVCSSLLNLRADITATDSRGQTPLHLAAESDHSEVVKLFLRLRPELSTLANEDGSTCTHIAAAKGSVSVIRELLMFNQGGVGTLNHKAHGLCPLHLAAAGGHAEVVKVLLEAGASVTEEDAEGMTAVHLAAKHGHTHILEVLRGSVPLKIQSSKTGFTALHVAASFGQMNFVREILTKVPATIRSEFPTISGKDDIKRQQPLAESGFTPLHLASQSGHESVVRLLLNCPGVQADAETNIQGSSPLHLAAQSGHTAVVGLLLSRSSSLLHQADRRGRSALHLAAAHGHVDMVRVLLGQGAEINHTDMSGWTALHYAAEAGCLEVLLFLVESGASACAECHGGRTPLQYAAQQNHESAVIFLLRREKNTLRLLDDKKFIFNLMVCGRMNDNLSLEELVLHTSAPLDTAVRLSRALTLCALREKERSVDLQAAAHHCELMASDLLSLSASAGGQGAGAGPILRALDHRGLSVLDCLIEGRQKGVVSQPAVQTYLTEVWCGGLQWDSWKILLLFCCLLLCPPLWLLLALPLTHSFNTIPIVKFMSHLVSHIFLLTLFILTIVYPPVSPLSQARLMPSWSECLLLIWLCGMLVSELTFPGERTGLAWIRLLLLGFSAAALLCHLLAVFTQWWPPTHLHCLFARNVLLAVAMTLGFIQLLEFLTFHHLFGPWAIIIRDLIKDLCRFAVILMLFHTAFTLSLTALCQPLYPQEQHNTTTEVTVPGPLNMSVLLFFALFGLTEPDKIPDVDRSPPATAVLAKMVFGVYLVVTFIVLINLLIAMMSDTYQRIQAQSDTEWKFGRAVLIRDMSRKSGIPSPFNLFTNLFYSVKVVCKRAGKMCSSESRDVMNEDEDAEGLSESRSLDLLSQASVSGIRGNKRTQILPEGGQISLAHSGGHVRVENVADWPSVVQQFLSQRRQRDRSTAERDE
Chain of DNA dC->dU-editing enzyme APOBEC-3A (P31941 whole entry): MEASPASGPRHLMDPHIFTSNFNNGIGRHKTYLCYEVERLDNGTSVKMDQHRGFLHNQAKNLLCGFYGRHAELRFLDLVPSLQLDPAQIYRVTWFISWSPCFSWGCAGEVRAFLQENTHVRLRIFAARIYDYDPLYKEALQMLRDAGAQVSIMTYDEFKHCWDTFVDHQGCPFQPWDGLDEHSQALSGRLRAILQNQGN
Chain of DNA dC->dU-editing enzyme APOBEC-3G (Q9HC16 whole entry): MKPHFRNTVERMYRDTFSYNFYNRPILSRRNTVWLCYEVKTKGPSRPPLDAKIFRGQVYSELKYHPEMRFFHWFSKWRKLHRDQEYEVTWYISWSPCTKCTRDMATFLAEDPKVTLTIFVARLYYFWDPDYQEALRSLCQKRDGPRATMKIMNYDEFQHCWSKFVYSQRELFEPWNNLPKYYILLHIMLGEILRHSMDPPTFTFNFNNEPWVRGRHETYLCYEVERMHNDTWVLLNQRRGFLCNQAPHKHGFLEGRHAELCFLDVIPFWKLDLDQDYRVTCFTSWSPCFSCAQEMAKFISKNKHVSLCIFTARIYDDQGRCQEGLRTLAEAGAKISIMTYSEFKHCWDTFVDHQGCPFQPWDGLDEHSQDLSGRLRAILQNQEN
Chain of Vasopressin V1a receptor (P37288 whole entry): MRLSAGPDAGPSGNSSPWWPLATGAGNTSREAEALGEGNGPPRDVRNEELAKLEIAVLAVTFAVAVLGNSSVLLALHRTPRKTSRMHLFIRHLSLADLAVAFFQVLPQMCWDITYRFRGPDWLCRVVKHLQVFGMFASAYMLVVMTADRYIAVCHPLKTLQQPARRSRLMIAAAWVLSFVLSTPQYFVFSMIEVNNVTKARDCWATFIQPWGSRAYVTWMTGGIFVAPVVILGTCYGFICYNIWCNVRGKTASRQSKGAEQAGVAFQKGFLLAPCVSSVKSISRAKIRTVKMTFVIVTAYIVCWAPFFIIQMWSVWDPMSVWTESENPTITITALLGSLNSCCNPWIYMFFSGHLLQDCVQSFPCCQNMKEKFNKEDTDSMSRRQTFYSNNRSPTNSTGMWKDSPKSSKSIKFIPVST
Chain of Mitochondrial peptide methionine sulfoxide reductase (P54149 whole entry): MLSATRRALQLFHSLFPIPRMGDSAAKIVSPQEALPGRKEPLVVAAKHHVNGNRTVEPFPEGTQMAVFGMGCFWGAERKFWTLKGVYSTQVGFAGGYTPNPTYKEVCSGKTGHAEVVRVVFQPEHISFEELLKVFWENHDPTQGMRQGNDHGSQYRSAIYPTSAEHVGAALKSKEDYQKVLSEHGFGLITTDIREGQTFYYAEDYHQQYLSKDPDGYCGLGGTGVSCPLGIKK

For `Cc1ccccc1-n1sc2cc(F)ccc2c1=O`, the EC50 [1] was > 104 µM (inactive), the IC50 [2] was 36.7 µM (inactive) and the CC50 [3] was 19 µM (active). The IC50 [4] was > 100 µM (inactive), the IC50 (Procathepsin L) was > 59.6 µM (not active) and the CC50 [5] was 12.1 µM (active). The IC50 [6] was 8.95 µM (active), the IC50 (cells) was 23.7 µM (active) and the IC50 [7] was 13.9 µM (active). For the same compound, the IC50 [8] was 39.6 µM (inactive), the IC50 (Hexokinase) was 4.8 µM (active) and the IC50 [9] was 9.02 µM (active). For the same compound, the IC50 [10] was 6.73 µM (active), the IC50 (Aspartyl aminopeptidase) was 0.648 µM (active) and the CC50 [11] was 13 µM (active). The IC50 (Large T antigen) was 13.1 µM (active).
For `COC(=O)[C@@H]1C[C@H]1[C@@H](NC(=O)OCc1ccccc1)c1ccccc1`, the AC50 (Cytochrome P450 2D6) was 12.6 µM (inconclusive).
In the case of `C/N=c1\[nH]c2cc([N+](=O)[O-])c([N+](=O)[O-])cc2[nH]\c1=N\C`, the EC50 (Mucolipin-3) is reported as > 29.9 µM (not active), the IC50 (Galanin receptor type 2) is reported as 1.29 µM (active) and the EC50 (Ion channel NompC) is reported as > 29.9 µM (inactive). The EC50 (Vasopressin V1a receptor) was > 29.9 µM (not active) and the EC50 (Oxytocin receptor) was > 29.9 µM (not active).
